# Like-named read-outs stand apart in the source and are kept apart here.
# What was measured:
# [1] = target: MOZ-KAT6A (Homo sapiens (Human), UniProt Q92794); assay: biochemical
# [2] = target: HBO1-KAT7 (Homo sapiens (Human), UniProt O95251); assay: biochemical
# [3] = target: KAT6A (Homo sapiens (Human), UniProt Q92794); assay: KAT assay protocol (SAMDI mass spectrometry), KAT6A; format: biochemical; settings: for inhibition at 1 µM: 1 μM compound; for IC50: 1 μM AcCoA; for Ki: 10 μM AcCoA, Morrison equation
# Sequence of KAT6A (Q92794 whole entry): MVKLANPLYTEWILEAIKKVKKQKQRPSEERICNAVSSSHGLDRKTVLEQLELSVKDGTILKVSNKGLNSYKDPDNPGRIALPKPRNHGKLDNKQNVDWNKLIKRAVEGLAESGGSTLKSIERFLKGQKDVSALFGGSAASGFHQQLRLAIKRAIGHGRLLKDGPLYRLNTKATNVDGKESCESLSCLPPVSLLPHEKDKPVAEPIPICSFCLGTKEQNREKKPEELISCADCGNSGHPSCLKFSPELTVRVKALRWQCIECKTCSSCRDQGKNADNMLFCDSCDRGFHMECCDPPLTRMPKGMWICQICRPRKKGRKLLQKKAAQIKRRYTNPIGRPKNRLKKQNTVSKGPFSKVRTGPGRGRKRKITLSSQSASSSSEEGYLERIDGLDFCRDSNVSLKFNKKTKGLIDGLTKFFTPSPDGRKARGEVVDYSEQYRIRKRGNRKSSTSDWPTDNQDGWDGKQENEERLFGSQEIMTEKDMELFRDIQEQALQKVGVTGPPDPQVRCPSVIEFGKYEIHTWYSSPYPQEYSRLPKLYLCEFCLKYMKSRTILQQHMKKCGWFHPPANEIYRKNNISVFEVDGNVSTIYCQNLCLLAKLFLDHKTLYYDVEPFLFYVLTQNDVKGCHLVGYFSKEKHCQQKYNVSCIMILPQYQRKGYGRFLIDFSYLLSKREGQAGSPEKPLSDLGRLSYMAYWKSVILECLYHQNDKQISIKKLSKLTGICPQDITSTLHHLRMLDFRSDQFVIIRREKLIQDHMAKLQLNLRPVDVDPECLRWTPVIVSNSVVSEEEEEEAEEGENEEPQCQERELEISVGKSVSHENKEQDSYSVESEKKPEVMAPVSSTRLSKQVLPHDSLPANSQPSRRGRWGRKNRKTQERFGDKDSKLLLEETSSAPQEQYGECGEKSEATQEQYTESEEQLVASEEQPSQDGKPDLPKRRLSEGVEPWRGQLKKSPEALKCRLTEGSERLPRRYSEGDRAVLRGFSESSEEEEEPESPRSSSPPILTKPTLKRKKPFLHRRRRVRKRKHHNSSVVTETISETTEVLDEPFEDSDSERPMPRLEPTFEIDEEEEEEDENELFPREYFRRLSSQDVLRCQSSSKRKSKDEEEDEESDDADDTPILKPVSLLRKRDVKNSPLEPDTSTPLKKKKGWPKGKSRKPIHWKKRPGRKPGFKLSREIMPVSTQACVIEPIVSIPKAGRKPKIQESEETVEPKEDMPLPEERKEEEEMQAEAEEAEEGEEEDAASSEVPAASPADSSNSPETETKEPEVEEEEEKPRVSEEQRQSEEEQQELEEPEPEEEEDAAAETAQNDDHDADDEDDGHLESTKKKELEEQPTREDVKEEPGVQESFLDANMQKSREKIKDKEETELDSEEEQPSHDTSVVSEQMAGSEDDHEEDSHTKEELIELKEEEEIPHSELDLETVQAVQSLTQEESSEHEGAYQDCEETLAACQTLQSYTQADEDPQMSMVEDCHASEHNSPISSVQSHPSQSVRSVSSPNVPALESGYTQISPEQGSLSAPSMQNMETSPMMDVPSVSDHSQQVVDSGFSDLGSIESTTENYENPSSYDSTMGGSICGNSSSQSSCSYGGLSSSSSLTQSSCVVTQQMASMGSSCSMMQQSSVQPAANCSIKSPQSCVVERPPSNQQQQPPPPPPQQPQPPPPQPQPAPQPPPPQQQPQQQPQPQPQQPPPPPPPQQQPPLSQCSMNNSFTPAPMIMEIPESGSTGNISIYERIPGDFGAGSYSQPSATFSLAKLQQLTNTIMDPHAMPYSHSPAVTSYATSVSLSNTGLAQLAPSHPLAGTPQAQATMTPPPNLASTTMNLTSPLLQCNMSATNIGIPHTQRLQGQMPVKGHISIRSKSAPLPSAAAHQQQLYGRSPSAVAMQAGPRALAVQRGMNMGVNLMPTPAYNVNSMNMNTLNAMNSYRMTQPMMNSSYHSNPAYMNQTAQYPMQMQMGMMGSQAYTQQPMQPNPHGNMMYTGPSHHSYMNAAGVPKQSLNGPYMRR
# Description: Biological Assay Section 1 KAT Assay Protocol:
# A. Compound Preparation • 1. Prepare 10 mM stock solutions in 100% DMSO from solid material • 2. Serial dilute 10 mM, 1 mM or 0.1 mM compound stocks 3-fold in 100% DMSO for 11-point dose response
# B. Reagent Preparation • 1. Prepare 1× assay buffer containing 10 mM Tris HCL pH 8.0, 2.5 mM NaCl, 0.5 mM EDTA, 0.005% BSG and 0.02% Tween-20 • 2. Dilute Histone peptide (CPC Scientific) and AcCoA (Sigma) together in assay buffer to 2×. • 3. Dilute KAT enzyme in assay buffer to 2×.
# C. Enzyme Reaction • 1. Final reaction conditions for each KAT assay in a 20 ul assay reaction volume: • i. […] Add 0.5 ul of diluted compound to the assay plate (384-well V-bottom polypropylene plates) or 0.5 ul of DMSO for control wells. • 3. Add 10 ul of 2× Histone peptide/2× AcCoA mix to the assay plate. • 4. Add 10 ul of 2× enzyme to the assay plate. • 5. Stop the reaction after the indicated time with the addition of 2 ul of 5% formic acid • 6. Each reaction was analyzed using self-assembled monolayer desorption/ionization time-of-flight mass spectrometry (Mrksich, Milan (2008) Mass Spectrometry of Self-Assembled Monolayers: A New Tool for Molecular Surface Science ACS Nano 2008 2 (1), 7-18; SAMDI Tech, Inc. (Chicago, IL)). • 7. Area under the curve (AUC) for both substrate and product peaks was determined for KAT6A at M.W. 2723 [Substrate+H]^+ and 2765 [Product+H]^+ with a +/−1 Da tolerance, respectively. • 8. Percent conversion to product was calculated by: AUCProduct/(AUCSubstrate+AUCProduct).
# D. Data Analysis • 1. IC50 values were determined by fitting the % conversion at each inhibitor concentration to the 4-parameter IC50 equation using Pfizer proprietary curve fitting software. • 2. Ki values were determined by fitting the % conversion at each inhibitor concentration to the Morrison equation for tightbinding competitive inhibitors using Pfizer proprietary curve fitting software. Materials
# KAT enzymes were expressed using a baculovirus expression system and purified at Pfizer, La Jolla. Histone H3 (1-21) peptide ([…], SEQ ID NO:3) was purchased from CPC Scientific (Sunnyvale, CA). Acetyl coenzyme A was purchased from Sigma-Aldrich (St. Louis, MO). All other biochemical reagents were purchased from Sigma-Aldrich or ThermoFisher Scientific (Waltham, MA).
# […] 10 ul of 2× Histone peptide/AcCoA mix was added to a 384-well V-bottom polypropylene assay plate containing 0.5 ul of serially diluted test compound in 100% dimethyl sulfoxide (DMSO). To start the reaction, 10 ul of 2× enzyme solution was added to the assay plate. KAT assays were terminated after 30-60 minutes with the addition of 2 ul of 5% formic acid. KAT6A used histone H3 (1-21) peptide. The final enzyme concentration for KAT6A was 15 nM. Each reaction was analyzed using self-assembled monolayer desorption/ionization time-of-flight mass spectrometry (Mrksich, Milan (2008) Mass Spectrometry of Self-Assembled Monolayers: A New Tool for Molecular Surface Science ACS Nano 2008 2 (1), 7-18; SAMDI Tech, Inc. (Chicago, IL)).
# Area under the curve (AUC) for both substrate and product peaks was determined for KAT6A at M.W. 2723 [Substrate+H]^+ and 2765 [Product+H]^+ with a +/−1 Da tolerance, respectively. Percent conversion to product was calculated by: AUCProduct/(AUCSubstrate+AUCProduct). IC50 values were determined by fitting the % conversion at each inhibitor concentration to the 4-parameter IC50 equation using Pfizer proprietary curve fitting software. Ki values were determined by fitting the % conversion at each inhibitor concentration to the Morrison equation for tightbinding competitive inhibitors using Pfizer proprietary curve fitting software.
# [4] = target: TIP60-KAT5 (Homo sapiens (Human), UniProt Q92993); assay: biochemical
# Sequence of TIP60-KAT5 (Q92993 other isoform, or with tags, fused parts or gaps): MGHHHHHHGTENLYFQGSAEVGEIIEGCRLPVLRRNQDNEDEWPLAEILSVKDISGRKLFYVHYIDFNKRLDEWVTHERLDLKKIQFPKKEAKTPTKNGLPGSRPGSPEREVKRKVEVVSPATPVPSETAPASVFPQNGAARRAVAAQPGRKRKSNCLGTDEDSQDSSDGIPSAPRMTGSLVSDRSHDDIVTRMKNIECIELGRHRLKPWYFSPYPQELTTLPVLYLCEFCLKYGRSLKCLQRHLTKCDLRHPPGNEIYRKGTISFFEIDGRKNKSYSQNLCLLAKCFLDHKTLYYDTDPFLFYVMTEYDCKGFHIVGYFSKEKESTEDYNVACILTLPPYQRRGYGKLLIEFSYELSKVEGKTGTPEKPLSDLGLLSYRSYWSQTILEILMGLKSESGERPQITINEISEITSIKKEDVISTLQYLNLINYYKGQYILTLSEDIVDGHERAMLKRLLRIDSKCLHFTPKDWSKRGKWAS
# [5] = read-out: KAT6A IC50 at 1 μM AcCoA
# Sequence of HBO1-KAT7 (O95251 other isoform, or with tags, fused parts or gaps): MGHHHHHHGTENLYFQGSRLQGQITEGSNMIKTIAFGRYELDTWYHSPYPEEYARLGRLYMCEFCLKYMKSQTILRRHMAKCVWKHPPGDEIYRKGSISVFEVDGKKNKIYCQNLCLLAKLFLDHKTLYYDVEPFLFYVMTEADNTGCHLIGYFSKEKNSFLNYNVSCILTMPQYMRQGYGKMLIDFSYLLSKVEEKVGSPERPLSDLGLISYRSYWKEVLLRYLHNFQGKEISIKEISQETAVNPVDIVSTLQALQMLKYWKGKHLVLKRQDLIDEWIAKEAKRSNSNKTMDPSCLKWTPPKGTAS
# Sequence of MOZ-KAT6A (Q92794 other isoform, or with tags, fused parts or gaps): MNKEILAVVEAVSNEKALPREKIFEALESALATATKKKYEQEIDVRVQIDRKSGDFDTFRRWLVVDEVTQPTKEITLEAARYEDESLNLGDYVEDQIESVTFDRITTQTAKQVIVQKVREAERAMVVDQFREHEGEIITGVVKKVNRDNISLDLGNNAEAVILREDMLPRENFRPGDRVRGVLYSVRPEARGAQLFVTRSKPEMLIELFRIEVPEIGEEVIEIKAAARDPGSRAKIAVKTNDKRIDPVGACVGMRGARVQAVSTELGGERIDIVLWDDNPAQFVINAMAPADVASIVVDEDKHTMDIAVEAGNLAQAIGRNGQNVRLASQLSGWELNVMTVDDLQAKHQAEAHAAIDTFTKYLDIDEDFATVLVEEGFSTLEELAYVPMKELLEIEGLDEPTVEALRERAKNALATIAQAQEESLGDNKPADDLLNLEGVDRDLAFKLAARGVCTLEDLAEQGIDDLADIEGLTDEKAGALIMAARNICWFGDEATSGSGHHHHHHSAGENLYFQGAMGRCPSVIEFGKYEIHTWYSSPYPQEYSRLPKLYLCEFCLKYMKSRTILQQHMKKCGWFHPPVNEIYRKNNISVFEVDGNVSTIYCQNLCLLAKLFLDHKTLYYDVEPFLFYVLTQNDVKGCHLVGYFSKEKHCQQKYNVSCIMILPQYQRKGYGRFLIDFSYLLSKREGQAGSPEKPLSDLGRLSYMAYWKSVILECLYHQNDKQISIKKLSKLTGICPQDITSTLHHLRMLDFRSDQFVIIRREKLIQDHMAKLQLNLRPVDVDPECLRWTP
structure (smiles),measurement,setting,value
COc1cc(Cn2cccn2)cc2onc(NS(=O)(=O)CC3CCCCC3)c12 [Example 123],IC50,[1],0.015 µM
same,IC50,[2],1.26 µM
same,inhibition at 1 µM,[3],85%
same,IC50,[3]; KAT6A IC50 at 1 μM AcCoA,0.0289 µM
same,Ki,[3]; KAT6A Ki at 10 μM AcCoA,0.00544 µM
same,IC50,[4],9.04 µM
COc1cc(Cn2cccn2)cc2onc(NS(=O)(=O)C3CCCCC3)c12 [Example 124],IC50,[1],0.03 µM
same,IC50,[2],0.44 µM
same,inhibition at 1 µM,[3],88%
same,IC50,[3]; KAT6A IC50 at 1 μM AcCoA,0.117 µM
same,IC50,[4],2.4 µM
COc1cc(Cn2cccn2)cc2onc(NS(=O)(=O)CC(C)OCC3CCCC3)c12 (stereo not drawn) [Example 127],IC50,[3]; KAT6A IC50 at 1 μM AcCoA,0.036 µM
COc1cc(Cn2cccn2)cc2onc(NS(=O)(=O)CC(C)C)c12 [Example 128],IC50,[3]; [5],0.128 µM
COc1cc(Cn2cccn2)cc2onc(NS(=O)(=O)CCN3CCCC3)c12 [Example 129],inhibition at 1 µM,[3],16%
COc1cc(Cn2cccn2)cc2onc(NS(=O)(=O)CCN3CCOCC3)c12 [Example 130],IC50,[3]; KAT6A IC50 at 1 μM AcCoA,0.187 µM
COc1cc(Cn2cccn2)cc2onc(NS(=O)(=O)NC3CCCCC3)c12 [Example 131],IC50,[3]; [5],0.006 µM
same,Ki,[3]; read-out: KAT6A Ki at 10 μM AcCoA,0.003 µM
COc1cc(Cn2cccn2)cc2onc(NS(=O)(=O)N(C)C3CCCCC3)c12 [Example 132],IC50,[3]; KAT6A IC50 at 1 μM AcCoA,0.009 µM
same,Ki,[3]; KAT6A Ki at 10 μM AcCoA,0.004 µM
COc1cc(Cn2cccn2)cc2onc(NS(=O)(=O)C[C@H]3C[C@@H](C)C3)c12 [Example 133],IC50,[3]; KAT6A IC50 at 1 μM AcCoA,0.04 µM
COc1cc(Cn2cccn2)cc2onc(NS(=O)(=O)C[C@H]3C[C@H](C)C3)c12 [Example 134],IC50,[3]; KAT6A IC50 at 1 μM AcCoA,0.04 µM
